Holding throughout (format): functional
One assay deals with A549. Put plainly: Cytotoxicity against human A549 cells. The settings on record: read-out: ED50 (the source's name).
The next assay deals with MCF7. Put plainly: Cytotoxicity against human MCF7 cells. The settings on record: read-out: ED50 (the source's name).
Another assay deals with P388. Kind of assay: Cytotoxicity against mouse P388 cells.

A value given as a limit tells only on which side of the number the result lay.

`CCCCCCCCCC[C@@H](O)[C@@H]1CC[C@H]([C@H]2CC[C@@H]([C@@H](O)CCCCCCCCCCC(O)CC3=CC(C)OC3=O)O2)O1` (stereo partly drawn): the EC50 with A549 and in the assay on MCF7 was less than 1 ng/mL in each case.

`CCCCCCCCC[C@@H](O)[C@@H](O)[C@@H]1CC[C@@H]([C@@H]2CC[C@@H]([C@@H](O)CCCCCCCCCCCCC3=CC(C)OC3=O)O2)O1` (stereo partly drawn) [ROLLINICIN] had an ED50 in the assay on P388 of 2.9 ×10⁻⁸ ug/ml.

The values are drawn from ChEMBL document CHEMBL1147297, “4-Hydroxy-25-desoxyneorollinicin, a new bistetrahydrofuranoid acetogenin from Rollinia papilionella” (1989).
